{
  "source": "patent US20090036448A1",
  "about": "“PYRIMIDINE DERIVATIVES AND METHODS OF TREATMENT RELATED TO THE USE THEREOF” (TAISHO PHARMECUTICAL CO., LTD., priority 2004, published 2009)",
  "data": [
    {"target": "MCH receptor (Homo sapiens, UniProt Q99705)", "sequence (Q99705 whole entry)": "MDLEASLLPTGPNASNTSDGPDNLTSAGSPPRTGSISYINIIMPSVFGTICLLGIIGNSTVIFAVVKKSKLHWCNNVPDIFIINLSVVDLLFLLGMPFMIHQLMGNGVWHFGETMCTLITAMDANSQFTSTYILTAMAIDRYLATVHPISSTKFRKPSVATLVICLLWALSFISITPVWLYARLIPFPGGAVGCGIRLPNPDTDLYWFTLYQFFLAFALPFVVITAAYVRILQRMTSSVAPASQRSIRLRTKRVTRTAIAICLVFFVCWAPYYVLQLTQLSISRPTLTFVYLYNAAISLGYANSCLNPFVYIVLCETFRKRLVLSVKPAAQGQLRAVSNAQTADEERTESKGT", "test": "Receptor binding assay with Radiolabelled MCH Ligand", "set-up": "expressed in transfected cells; host or cells: 293 cells (human kidney, ATCC), transient transfection; crude membranes", "settings": "class by percent of control at 10^-7 M or IC50", "excerpt": "In addition to the methods described herein, another means for evaluating a test compound is by determining binding affinities to the MCH receptor. This type of assay generally requires a radiolabelled ligand to the MCH receptor. Absent the use of known ligands for the MCH receptor and radiolabels thereof, compounds of Formula (I) can be labelled with a radioisotope and used in an assay for evaluating the affinity of a test compound to the MCH receptor.\nA radiolabelled MCH compound of Formula (I) can be used in a screening assay to identify/evaluate compounds. In general terms, a newly synthesized or identified compound (i.e., test compound) can be evaluated for its ability to reduce binding of the “radiolabelled compound of Formula (I)” to the MCH receptor. Accordingly, the ability to compete with the “radio-labelled compound of Formula (I)” or Radiolabelled MCH Ligand for the binding to the MCH receptor directly correlates to its binding affinity of the test compound to the MCH receptor.\n293 cells (human kidney, ATCC), transiently transfected with 10 μg human MCH receptor and 60 μl Lipofectamine (per 15-cm dish), are grown in the dish for 24 hours (75% confluency) with a media change and removed with 10 mL/dish of Hepes-EDTA buffer (20 mM Hepes+10 mM EDTA, pH 7.4). The cells are then centrifuged in a Beckman Coulter centrifuge for 20 minutes, 17,000 rpm (JA-25.50 rotor). Subsequently, the pellet is resuspended in 20 mM Hepes+1 mM EDTA, pH 7.4 and homogenized with a 50-mL Dounce homogenizer and again centrifuged. After removing the supernatant, the pellets can be stored at −80° C., until used in binding assay. When used in the assay, membranes are thawed on ice for 20 minutes and then 10 mL of incubation buffer (20 mM Hepes, 1 mM MgCl2, 100 mM NaCl, pH 7.4) added. The membranes are then vortexed to resuspend the crude membrane pellet and homogenized with a Brinkmann PT-3100 Polytron homogenizer for 15 seconds at setting 6. The concentration of membrane protein is determined using the BRL Bradford protein assay.\nFor total binding, a total volume of 50 ul of appropriately diluted membranes (diluted in assay buffer containing 50 mM Tris HCl (pH 7.4), 1 mM MgCl2, and 1 mM EDTA; 5-50 ug protein) is added to 96-well polyproylene microtiter plates followed by addition of 100 μl of assay buffer and 50 μl of Radiolabelled MCH Ligand. For nonspecific binding, 50 μl of assay buffer is added instead of 100 μl and an additional 50 μl of 10 uM cold MCH is added before 50 μl of Radiolabelled MCH Ligand is added. Plates are then incubated at room temperature for 60-120 minutes. The binding reaction is terminated by filtering assay plates through a Microplate Devices GF/C Unifilter filtration plate with a Brandell 96-well plate harvester followed by washing with cold 50 mM Tris HCl, pH 7.4 containing 0.9% NaCl. Then, the bottom of the filtration plate are sealed, 50 ul of Optiphase Supermix is added to each well, the top of the plates are sealed, and plates are counted in a Trilux MicroBeta scintillation counter. For compound competition studies, instead of adding 100 μl of assay buffer, 100 μl of appropriately diluted test compound is added to appropriate wells followed by addition of 50 μl of Radiolabelled MCH Ligand.\nThe test compounds are initially assayed at 1 and 0.1 μM and then at a range of concentrations chosen such that the middle dose would cause about 50% inhibition of a Radiolabelled MCH Ligand binding (i.e., IC50). Specific binding in the absence of test compound (BO) is the difference of total binding (BT) minus non-specific binding (NSB) and similarly specific binding (in the presence of test compound) (B) is the difference of displacement binding (BD) minus non-specific binding (NSB). IC50 is determined from an inhibition response curve, logit-log plot of % B/BO vs. concentration of test compound.\nKi is calculated by the Cheng and Prustoff transformation: […]", "values": [
      {"smiles": "Cc1nc(N[C@H]2CC[C@@H](NC(=O)/C=C/c3ccccc3)CC2)cc(N(C)C)n1", "note": "[compound 210]", "class": "3 (Class 3: The value of percent of control at 10^−7 M was more than 60% or the value of IC50 was more than 200 nM.)"},
      {"smiles": "Cc1nc(N[C@H]2CC[C@@H](NC(=O)C3CC3)CC2)cc(N(C)C)n1", "note": "[compound 211]", "class": "3 (Class 3: The value of percent of control at 10^−7 M was more than 60% or the value of IC50 was more than 200 nM.)"},
      {"smiles": "Cc1nc(N[C@H]2CC[C@@H](NC(=O)C3CCCCC3)CC2)cc(N(C)C)n1", "note": "[compound 212]", "class": "3 (Class 3: The value of percent of control at 10^−7 M was more than 60% or the value of IC50 was more than 200 nM.)"},
      {"smiles": "Cc1nc(N[C@H]2CC[C@@H](NC(=O)Cc3ccc(Cl)cc3)CC2)cc(N(C)C)n1", "note": "[compound 213]", "class": "3 (Class 3: The value of percent of control at 10^−7 M was more than 60% or the value of IC50 was more than 200 nM.)"},
      {"smiles": "Cc1nc(N[C@H]2CC[C@@H](NC(=O)C3(c4ccc(Cl)cc4)CCCC3)CC2)cc(N(C)C)n1", "note": "[compound 214]", "class": "1 (Class 1: The value of percent of control at 10^−7 M was less than 40% or the value of IC50 was less than 50 nM.)"},
      {"smiles": "Cc1nc(N[C@H]2CC[C@@H](NC(=O)c3c(-c4c(F)cccc4Cl)noc3C)CC2)cc(N(C)C)n1", "note": "[compound 215, 3-(2-chloro-6-fluorophenyl)-N-(cis-4-{[6-(dimethylamino)-2-methylpyrimidin-4-yl]amino}cyclohexyl)-5-methylisoxazole-4-carboxamide]", "class": "1 (Class 1: The value of percent of control at 10^−7 M was less than 40% or the value of IC50 was less than 50 nM.)"},
      {"smiles": "Cc1nc(N[C@H]2CC[C@@H](NC(=O)c3scc(S(=O)(=O)c4ccc(Cl)cc4)c3C)CC2)cc(N(C)C)n1", "note": "[compound 216]", "class": "3 (Class 3: The value of percent of control at 10^−7 M was more than 60% or the value of IC50 was more than 200 nM.)"},
      {"smiles": "Cc1nc(N[C@H]2CC[C@@H](NC(=O)c3ccc(N(C)C)cc3)CC2)cc(N(C)C)n1", "note": "[compound 217]", "class": "3 (Class 3: The value of percent of control at 10^−7 M was more than 60% or the value of IC50 was more than 200 nM.)"},
      {"smiles": "Cc1nc(N[C@H]2CC[C@@H](NC(=O)c3ccc(F)c(F)c3)CC2)cc(N(C)C)n1", "note": "[compound 218, N-(cis-4-{[6-(dimethylamino)-2-methylpyrimidin-4-yl]amino}cyclohexyl)-3,4-difluorobenzamide]", "class": "1 (Class 1: The value of percent of control at 10^−7 M was less than 40% or the value of IC50 was less than 50 nM.)"},
      {"smiles": "COc1ccc(C(=O)N[C@H]2CC[C@@H](Nc3cc(N(C)C)nc(C)n3)CC2)cc1OC", "note": "[compound 219]", "class": "3 (Class 3: The value of percent of control at 10^−7 M was more than 60% or the value of IC50 was more than 200 nM.)"},
      {"smiles": "CCOc1ccc(C(=O)N[C@H]2CC[C@@H](Nc3cc(N(C)C)nc(C)n3)CC2)cc1", "note": "[compound 220]", "class": "3 (Class 3: The value of percent of control at 10^−7 M was more than 60% or the value of IC50 was more than 200 nM.)"},
      {"smiles": "Cc1nc(N[C@H]2CC[C@@H](NC(=O)c3ccc(F)cc3)CC2)cc(N(C)C)n1", "note": "[compound 221, N-(cis-4-{[6-(dimethylamino)-2-methylpyrimidin-4-yl]amino}cyclohexyl)-4-fluorobenzamide]", "class": "3 (Class 3: The value of percent of control at 10^−7 M was more than 60% or the value of IC50 was more than 200 nM.)"},
      {"smiles": "Cc1nc(N[C@H]2CC[C@@H](NC(=O)c3ccco3)CC2)cc(N(C)C)n1", "note": "[compound 222]", "class": "3 (Class 3: The value of percent of control at 10^−7 M was more than 60% or the value of IC50 was more than 200 nM.)"},
      {"smiles": "Cc1nc(N[C@H]2CC[C@@H](NC(=O)c3ccno3)CC2)cc(N(C)C)n1", "note": "[compound 223]", "class": "3 (Class 3: The value of percent of control at 10^−7 M was more than 60% or the value of IC50 was more than 200 nM.)"},
      {"smiles": "Cc1nc(N[C@H]2CC[C@@H](NC(=O)c3ccccc3I)CC2)cc(N(C)C)n1", "note": "[compound 224]", "class": "3 (Class 3: The value of percent of control at 10^−7 M was more than 60% or the value of IC50 was more than 200 nM.)"},
      {"smiles": "Cc1nc(N[C@H]2CC[C@@H](NC(=O)N3CCOCC3)CC2)cc(N(C)C)n1", "note": "[compound 225]", "class": "3 (Class 3: The value of percent of control at 10^−7 M was more than 60% or the value of IC50 was more than 200 nM.)"},
      {"smiles": "CSc1ncccc1C(=O)N[C@H]1CC[C@@H](Nc2cc(N(C)C)nc(C)n2)CC1", "note": "[compound 226]", "class": "3 (Class 3: The value of percent of control at 10^−7 M was more than 60% or the value of IC50 was more than 200 nM.)"},
      {"smiles": "COC(=O)c1ccc(C(=O)N[C@H]2CC[C@@H](Nc3cc(N(C)C)nc(C)n3)CC2)cc1", "note": "[compound 227]", "class": "3 (Class 3: The value of percent of control at 10^−7 M was more than 60% or the value of IC50 was more than 200 nM.)"},
      {"smiles": "Cc1nc(N[C@H]2CC[C@@H](NC(=O)c3nn(-c4ccccc4)nc3C)CC2)cc(N(C)C)n1", "note": "[compound 228]", "class": "3 (Class 3: The value of percent of control at 10^−7 M was more than 60% or the value of IC50 was more than 200 nM.)"},
      {"smiles": "Cc1nc(N[C@H]2CC[C@@H](NC(=O)c3snnc3C)CC2)cc(N(C)C)n1", "note": "[compound 229]", "class": "3 (Class 3: The value of percent of control at 10^−7 M was more than 60% or the value of IC50 was more than 200 nM.)"},
      {"smiles": "COc1ccc(Oc2ccc([N+](=O)[O-])cc2C(=O)N[C@H]2CC[C@@H](Nc3cc(N(C)C)nc(C)n3)CC2)cc1", "note": "[compound 230, N-(cis-4-{[6-(dimethylamino)-2-methylpyrimidin-4-yl]amino}cyclohexyl)-2-(4-methoxyphenoxy)-5-nitrobenzamide]", "class": "2 (Class 2: The value of percent of control at 10^−7 M was from 40% to 60% or the value of IC50 was from 50 nM to 200 nM.)"},
      {"smiles": "Cc1nc(N[C@H]2CC[C@@H](NC(=O)c3ccc4ccccc4c3)CC2)cc(N(C)C)n1", "note": "[compound 231]", "class": "3 (Class 3: The value of percent of control at 10^−7 M was more than 60% or the value of IC50 was more than 200 nM.)"},
      {"smiles": "Cc1nc(N[C@H]2CC[C@@H](NC(=O)c3cccc([N+](=O)[O-])c3)CC2)cc(N(C)C)n1", "note": "[compound 232, N-(cis-4-{[6-(dimethylamino)-2-methylpyrimidin-4-yl]amino}cyclohexyl)-3-nitrobenzamide]", "class": "3 (Class 3: The value of percent of control at 10^−7 M was more than 60% or the value of IC50 was more than 200 nM.)"},
      {"smiles": "Cc1nc(N[C@H]2CC[C@@H](NC(=O)c3cnn(-c4ccc([N+](=O)[O-])cc4)c3C(F)(F)F)CC2)cc(N(C)C)n1", "note": "[compound 233]", "class": "3 (Class 3: The value of percent of control at 10^−7 M was more than 60% or the value of IC50 was more than 200 nM.)"},
      {"smiles": "Cc1nc(N[C@H]2CC[C@@H](NC(=O)COc3ccccc3)CC2)cc(N(C)C)n1", "note": "[compound 234]", "class": "3 (Class 3: The value of percent of control at 10^−7 M was more than 60% or the value of IC50 was more than 200 nM.)"},
      {"smiles": "Cc1nc(N[C@H]2CC[C@@H](NC(=O)Cc3ccccc3)CC2)cc(N(C)C)n1", "note": "[compound 235]", "class": "3 (Class 3: The value of percent of control at 10^−7 M was more than 60% or the value of IC50 was more than 200 nM.)"},
      {"smiles": "Cc1nc(N[C@H]2CC[C@@H](NC(=O)C3C[C@H]3c3ccccc3)CC2)cc(N(C)C)n1", "note": "(stereo partly shown) [compound 236]", "class": "3 (Class 3: The value of percent of control at 10^−7 M was more than 60% or the value of IC50 was more than 200 nM.)"},
      {"smiles": "Cc1nc(N[C@H]2CC[C@@H](NC(=O)c3ccc4c(c3)OCO4)CC2)cc(N(C)C)n1", "note": "[compound 237]", "class": "3 (Class 3: The value of percent of control at 10^−7 M was more than 60% or the value of IC50 was more than 200 nM.)"}
    ]}
  ]
}
